For data set [1], the system named is influx of neutrophils to the lung in LPS-challenged rats. As to the kind of experiment: Rat LPS neutrophilia model. It is filed as in vivo. Particulars: LPS aerosol 100 ug/ml 15 min, lavage 4 hours later; in at least one of the range of conditions tested. The procedure:
The effect of compounds on the influx of neutrophils to the lung in LPS-challenged rats is evaluated as follows. The test compound is suspended in one of the following solutions: 0.5% tween 80/PBS, 0.5% tween 80/saline, 10% EtOH/saline (with pH adjusted to 2.0, or 8.0 with HCl, or unadjusted), Saline @ pH 2.0, 6.5 or 8.0, 0.5% Tragacanth, 1% DMSO/20% Encapsin/Saline, or acidified 5% Tragacanth. The suspension process may be aided by the use of a glass homogenizer. For intratracheal administration, the animals are anesthetized with inhaled isoflurane and placed in a supine position, the trachea is intubated with a steel gavage needle (1.5 inch, 22 gauge, small ball) or a Penn-Century Microsprayer Aerosolizer (model IA-IB) and 200 ul of dosing solution is delivered. The animals are visually monitored during the recovery process, which typically occurs within two minutes.
Rats treated with compound or vehicle (15 min-24 hours pretreatment) are exposed to an LPS aerosol (100 ug/ml) for 15 min. Four hours later the rats are euthanized with pentobarbital (100 mg/kg, i.p.) and the airways are lavaged with 5 washes of 5 ml of phosphate buffered saline. The harvested cells are stained (Diffquick) and counted to determine total and differential cell data. In a typical study, macrophages represent 40-70% of the total cells, and polymorphonuclear cells 30-60% of the total cells. Inhibition of neutrophil levels relative to no compound controls is calculated based on the differential counts.
The assay has varying conditions, such as concentration, pretreat time, form of the compound (crystalline, amorphous, salts, micronised), and a wet or dry application of the compound. The data is obtained as % inhibition using a particular concentration and pretreat time.

The values that follow come from US20090318424A1, “NOVEL COMPOUNDS” (priority 2006, published 2009).

SMILES strings stand for the structures.

As a reminder, the melting point is the temperature of the solid-liquid transition. Take `Cc1ccc(C(=O)Nc2ccc(C)c(-c3nc(NC4CC(C)(C)NC(C)(C)C4)nc4c3CNC(=O)N4c3c(F)cccc3F)c2)cc1F` [23(e), N-(3-{8-(2,6-difluorophenyl)-7-oxo-2-[(2,2,6,6-tetramethyl-4-piperidinyl)amino]-5,6,7,8-tetrahydropyrimido[4,5-d]pyrimidin-4-yl}-4-methylphenyl)-3-fluoro-4-methylbenzamide]: the melting point is 220 °C (dec.). The inhibition of neutrophilia entry in data set [1] was “statistically nonsignificant inhibition”. `Cc1ccc(C(=O)NCc2ccccc2)cc1-c1nc(NCCCN(C)C)nc2c1CNC(=O)N2c1c(F)cccc1F` [Example 151, 3-(8-(2,6-difluorophenyl)-2-{[3-(dimethylamino)propyl]amino}-7-oxo-5,6,7,8-tetrahydropyrimido[4,5-d]pyrimidin-4-yl)-4-methyl-N-(phenylmethyl)benzamide] returned a melting point of 141 to 144 °C. Besides, in data set [1], the inhibition of neutrophilia result was “statistically nonsignificant inhibition”. `Cc1ccc(C(=O)Nc2ccc(C)c(-c3nc(N4CCC(N)CC4)nc4c3CNC(=O)N4c3c(F)cccc3F)c2)cc1F` [Example 24, N-{3-[2-(4-amino-1-piperidinyl)-8-(2,6-difluorophenyl)-7-oxo-5,6,7,8-tetrahydropyrimido[4,5-d]pyrimidin-4-yl]-4-methylphenyl}-3-fluoro-4-methylbenzamide] registered a melting point of 240 °C. Also, in data set [1], the inhibition of neutrophilia result is “statistically nonsignificant inhibition”. On to `Cc1ccc(C(=O)NCc2ccccc2)cc1-c1nc(N(C)CCCN(C)C)nc2c1CNC(=O)N2c1c(F)cccc1F` [Example 17, 3-{8-(2,6-Difluorophenyl)-2-[[3-(dimethylamino)propyl](methyl)amino]-7-oxo-5,6,7,8-tetrahydropyrimido[4,5-d]pyrimidin-4-yl}-4-methyl-N-(phenylmethyl)benzamide], for which the melting point lay within 124 to 127 °C. The inhibition of neutrophilia result in data set [1] is listed as “statistically nonsignificant inhibition”. As for `CNC(=O)c1ccc(C)c(-c2nc(N(C)CCCN(C)C)nc3c2CNC(=O)N3c2c(F)cccc2F)c1` [Example 174, 3-{8-(2,6-difluorophenyl)-2-[[3-(dimethylamino)propyl](methyl)amino]-7-oxo-5,6,7,8-tetrahydropyrimido[4,5-d]pyrimidin-4-yl}-N,4-dimethylbenzamide], the melting point was in the range of 163 to 165 °C. The inhibition of neutrophilia entry in data set [1] was “inactive”. As to `CCN(CC)CCCNc1nc(-c2cc(C(=O)NC)ccc2C)c2c(n1)N(c1c(F)cccc1F)C(=O)NC2` [Example 172, 3-[2-{[3-(diethylamino)propyl]amino}-8-(2,6-difluorophenyl)-7-oxo-5,6,7,8-tetrahydropyrimido[4,5-d]pyrimidin-4-yl]-N,4-dimethylbenzamide], the melting point lay in the range of 133 to 136 °C. Also, the inhibition of neutrophilia entry in data set [1] is reported as “statistically nonsignificant inhibition”.

On to `Cc1ccc(C(=O)NCc2ccccc2)cc1-c1nc(N2CCN(C)CC2)nc2c1CNC(=O)N2c1c(F)cccc1F` [Example 148, 3-[8-(2,6-difluorophenyl)-2-(4-methyl-1-piperazinyl)-7-oxo-5,6,7,8-tetrahydropyrimido[4,5-d]pyrimidin-4-yl]-4-methyl-N-(phenylmethyl)benzamide], for which the melting point was 164 to 168 °C. The inhibition of neutrophilia entry in data set [1] was “statistically nonsignificant inhibition”. Turning to `CNC(=O)c1ccc(C)c(-c2nc(N3CCC(N4CCCC4)CC3)nc3c2CNC(=O)N3c2c(F)cccc2F)c1` [Example 175, 3-{8-(2,6-difluorophenyl)-7-oxo-2-[4-(1-pyrrolidinyl)-1-piperidinyl]-5,6,7,8-tetrahydropyrimido[4,5-d]pyrimidin-4-yl}-N,4-dimethylbenzamide], the melting point is 189 to 194 °C (dec.). The inhibition of neutrophilia entry in data set [1] was “inactive”. In the case of `CNC(=O)c1ccc(C)c(-c2nc(NCCCNC(C)C)nc3c2CNC(=O)N3c2c(F)cccc2F)c1` [Example 168, 3-[8-(2,6-difluorophenyl)-2-({3-[(1-methylethyl)amino]propyl}amino)-7-oxo-5,6,7,8-tetrahydropyrimido[4,5-d]pyrimidin-4-yl]-N,4-dimethylbenzamide], the melting point is 153 to 157 °C (dec.). On to `CNC(=O)c1ccc(C)c(-c2nc(NC3CCN(C)CC3)nc3c2CNC(=O)N3c2c(F)cccc2F)c1` [Example 173, 3-{8-(2,6-difluorophenyl)-2-[(1-methyl-4-piperidinyl)amino]-7-oxo-5,6,7,8-tetrahydropyrimido[4,5-d]pyrimidin-4-yl}-N,4-dimethylbenzamide], for which the melting point was 205 to 209 °C (dec.). The compound `CCCCN(CCCC)CCCNc1nc(-c2cc(C(=O)NC)ccc2C)c2c(n1)N(c1c(F)cccc1F)C(=O)NC2` [Example 171, 3-[2-{[3-(dibutylamino)propyl]amino}-8-(2,6-difluorophenyl)-7-oxo-5,6,7,8-tetrahydropyrimido[4,5-d]pyrimidin-4-yl]-N,4-dimethylbenzamide] yielded a melting point of 112 to 115 °C. Still for that read-out and setting: the value for `COc1nc(-c2cc(NC(=O)c3ccsc3)ccc2C)c2c(n1)N(c1c(F)cccc1F)C(=O)NC2` [10(e), N-{3-[8-(2,6-difluorophenyl)-2-(methyloxy)-7-oxo-5,6,7,8-tetrahydropyrimido-[4,5-d]pyrimidin-4-yl]-4-methylphenyl}-3-thiophenecarboxamide] was 225 to 228 °C (dec.); that for `CNC(=O)c1ccc(C)c(-c2nc(N3CCN(C)CC3)nc3c2CNC(=O)N3c2c(F)cccc2F)c1` [Example 169, 3-[8-(2,6-difluorophenyl)-2-(4-methyl-1-piperazinyl)-7-oxo-5,6,7,8-tetrahydropyrimido[4,5-d]pyrimidin-4-yl]-N,4-dimethylbenzamide] was 164 to 168 °C (dec.). `CNCCNc1nc(-c2cc(C(=O)NCc3ccccc3)ccc2C)c2c(n1)N(c1c(F)cccc1F)C(=O)NC2` [19(b), 3-(8-(2,6-Difluorophenyl)-2-{[2-(methylamino)ethyl]amino}-7-oxo-5,6,7,8-tetrahydropyrimido[4,5-d]pyrimidin-4-yl)-4-methyl-N-(phenylmethyl)benzamide]: the melting point lay in the range of 157 to 161 °C. Same read-out and setting: the value for `Cc1ccc(C(=O)NCc2ccccc2)cc1-c1nc(NC2CC(C)(C)NC(C)(C)C2)nc2c1CNC(=O)N2c1c(F)cccc1F` [Example 16, 3-{8-(2,6-Difluorophenyl)-7-oxo-2-[(2,2,6,6-tetramethyl-4-piperidinyl)amino]-5,6,7,8-tetrahydropyrimido[4,5-d]pyrimidin-4-yl}-4-methyl-N-(phenylmethyl)benzamide] was 160 to 165 °C (dec.). Take `CCN(CC)C(=O)c1ccc(C)c(-c2nc(N(C)CCCN(C)C)nc3c2CNC(=O)N3c2c(F)cccc2F)c1` [Example 161, 3-{8-(2,6-difluorophenyl)-2-[[3-(dimethylamino)propyl](methyl)amino]-7-oxo-5,6,7,8-tetrahydropyrimido[4,5-d]pyrimidin-4-yl}-N,N-diethyl-4-methylbenzamide]: the melting point lay within 106 to 108 °C.
